Assay results as given in ChEMBL document CHEMBL1122267, “Pyridazinones. 3. Synthesis, antisecretory, and antiulcer activities of 2-cyanoguanidine derivatives” (1983).
Active and inactive are the calls of the source. The rule behind the calls is not given here.

Assays:
Rattus norvegicus [1] = assay: Percent inhibition of gastric antisecretory activity in the 4 hr pylorus-ligated rat to that of control at a dose of 100 mg/kg; not statistically significant; format: functional; conditions: Stomach
Rattus norvegicus [2] = assay: Compound was evaluated for antiulcer activity in rats after oral administration. (stress ulcer); NS means not statistically significant; format: functional, organism-based
Rattus norvegicus [3] = species on record: Rattus norvegicus; assay: Effective dose for 50 percent inhibition of gastric antisecretory activity in the 4 hr pylorus-ligated rat; format: functional; conditions: Stomach
Rattus norvegicus [4] = assay: Percent inhibition of gastric antisecretory activity in the 4 hr pylorus-ligated rat to that of control at a dose of 100 mg/kg; format: functional; conditions: Stomach, read-out: Inhibition
Rattus norvegicus [5] = assay: Compound was evaluated for antiulcer activity in rats due to stress after oral administration; format: functional
Rattus norvegicus [6] = assay: Compound was evaluated for antiulcer activity due to stress in rats after oral administration; not statistically significant; format: functional, organism-based

| Structure (SMILES) | inhibition in vivo at 100 mg/kg (Rattus norvegicus [1]) [%] | ED50 (Rattus norvegicus [2]) | ED50 (Rattus norvegicus [3]) [mg/kg] | inhibition in vivo at 100 mg/kg (Rattus norvegicus [4]) [%] | ED50 (Rattus norvegicus [5]) [mg/kg] | ED50 (Rattus norvegicus [6]) |
| --- | --- | --- | --- | --- | --- | --- |
| C/N=C(\NC#N)NCCSCn1nc(N2CCOCC2)ccc1=O | -12.5 | inactive | – | – | – | – |
| CN/C(=N\CCSCc1nc[nH]c1C)NC#N [CIMETIDINE] | – | – | 60.3 | 80.6 | 43.2 | – |
| C/N=C(\NC#N)NCCCCn1nc(-c2ccccc2)ccc1=O | – | – | 32.4 | 79 | 38.5 | – |
| C/N=C(\NC#N)NCCOCn1nc(-c2ccccc2)ccc1=O | – | – | < 82.3 | 60.6 | > 100 | – |
| C/N=C(\NC#N)NCCSCn1nc(-c2ccc(Cl)cc2)ccc1=O | – | – | < 39.1 | 70.3 | – | – |
| CCC/N=C(\NC#N)NCCSCn1nc(-c2ccccc2)ccc1=O | – | – | > 100 | 37.3 | 97.6 | – |
| C/N=C(\NC#N)NCCSCn1nc(-c2ccc(C)cc2)ccc1=O | – | – | < 53.8 | 62.5 | – | – |
| CC/N=C(\NC#N)NCCSCCn1nc(-c2ccccc2)ccc1=O | – | – | < 100 | 50.8 | – | – |
| C/N=C(\NC#N)NCCCCOCn1nc(-c2ccccc2)ccc1=O | – | – | > 100 | 32.8 | – | inactive |
| C/N=C(\NC#N)NCCSCn1nc(N(C)C)ccc1=O | 6.9 | – | – | – | – | – |
| C/N=C(\NC#N)NCCSCn1nc(-c2ccccc2)ccc1=O | – | – | < 30.5 | 83.3 | 28.5 | – |
| CCC/N=C(\NC#N)NCCSCCn1nc(-c2ccccc2)ccc1=O | – | – | > 100 | 33.5 | – | – |
| C/N=C(\NC#N)NCCSCn1nc(C)ccc1=O | – | – | > 100 | 30 | > 100 | – |
| CC/N=C(\NC#N)NCCSCn1nc(-c2ccccc2)ccc1=O | – | – | < 100 | 50.1 | 63.1 | – |
| C/N=C(\NC#N)NCCCOCn1nc(-c2ccccc2)ccc1=O | – | – | < 100 | 49.8 | – | inactive |
| CC/N=C(\NC#N)NCCSCn1nc(C)ccc1=O | – | – | > 100 | 26.7 | – | – |
| C/N=C(\NC#N)NCCSCCn1nc(-c2ccccc2)ccc1=O | – | – | < 80 | 58.3 | 77.6 | – |
| C/N=C(\NC#N)NCCSCCCn1nc(-c2ccccc2)ccc1=O | 18.2 | – | – | – | > 100 | – |
| CC/N=C(\NC#N)NCCSCCCn1nc(-c2ccccc2)ccc1=O | 22.9 | – | – | – | – | – |
